Reference: US6306890A, “Esters derived from indolealkanols and novel amides derived from indolealkylamides that are selective COX-2 inhibitors” (Vanderbilt University, priority 1999, dated 2001)
Where two headings read alike, the source gives them in different places.

Experiments:
[1] = molecular target: T1, human COX-2 (Homo sapiens, UniProt P35354); assay: Inhibition of purified human COX-2, TLC assay ([1-14C]-arachidonic acid), time-dependent; conditions: for Selectivity: COX-2 selectivity ratio, IC50 COX-1 / IC50 COX-2
T1 sequence (P35354 18-604): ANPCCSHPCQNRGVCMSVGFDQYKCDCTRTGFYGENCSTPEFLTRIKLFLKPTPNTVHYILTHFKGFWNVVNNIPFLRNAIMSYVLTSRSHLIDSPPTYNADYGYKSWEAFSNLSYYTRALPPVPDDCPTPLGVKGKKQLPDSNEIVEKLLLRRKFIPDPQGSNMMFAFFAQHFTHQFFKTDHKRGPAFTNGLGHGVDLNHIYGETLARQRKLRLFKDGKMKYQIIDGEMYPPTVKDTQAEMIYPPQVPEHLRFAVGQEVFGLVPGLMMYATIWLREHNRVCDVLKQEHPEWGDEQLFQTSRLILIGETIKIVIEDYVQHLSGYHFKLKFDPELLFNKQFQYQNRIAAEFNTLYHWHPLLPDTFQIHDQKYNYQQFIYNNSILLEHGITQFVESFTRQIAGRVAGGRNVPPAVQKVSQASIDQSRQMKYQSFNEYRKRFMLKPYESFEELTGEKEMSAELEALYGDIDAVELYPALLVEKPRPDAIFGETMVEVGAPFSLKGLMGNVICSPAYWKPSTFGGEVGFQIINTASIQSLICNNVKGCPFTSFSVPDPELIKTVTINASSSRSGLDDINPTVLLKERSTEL

[2] = molecular target: T2, ovine COX-1 (Ovis aries, UniProt P05979); assay: Inhibition of ovine COX-1, TLC assay ([1-14C]-arachidonic acid), time-dependent
T2 sequence (P05979 25-600): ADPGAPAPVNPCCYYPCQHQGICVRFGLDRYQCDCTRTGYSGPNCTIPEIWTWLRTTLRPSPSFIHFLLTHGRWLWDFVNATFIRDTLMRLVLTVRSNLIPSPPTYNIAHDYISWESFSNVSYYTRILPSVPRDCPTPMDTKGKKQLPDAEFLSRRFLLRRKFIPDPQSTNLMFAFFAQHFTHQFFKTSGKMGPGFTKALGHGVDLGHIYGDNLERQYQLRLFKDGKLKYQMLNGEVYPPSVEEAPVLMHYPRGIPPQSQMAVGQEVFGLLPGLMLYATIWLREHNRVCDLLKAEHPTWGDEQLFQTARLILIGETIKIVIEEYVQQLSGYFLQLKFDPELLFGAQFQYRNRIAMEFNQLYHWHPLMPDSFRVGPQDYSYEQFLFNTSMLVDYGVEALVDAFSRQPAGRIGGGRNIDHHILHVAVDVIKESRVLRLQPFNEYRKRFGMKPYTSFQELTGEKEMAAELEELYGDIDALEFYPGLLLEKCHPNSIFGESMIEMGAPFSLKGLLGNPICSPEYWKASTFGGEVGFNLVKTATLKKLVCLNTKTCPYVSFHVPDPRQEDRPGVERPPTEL

[3] = molecular target: T3, COX-2 in activated RAW264.7 macrophages (Mus musculus, UniProt Q05769); assay: Inhibition of COX-2 activity (PGD2 production) in intact activated RAW264.7 cells; assay type: cell-based, murine; conditions: FIG. 1; inhibitor 0-1 μM, 30 minutes at 37° C.; LPS + IFN-γ activated
T3 construct: PGD2 from [1-14C]-arachidonic acid by TLC
T3 sequence (Q05769 18-604): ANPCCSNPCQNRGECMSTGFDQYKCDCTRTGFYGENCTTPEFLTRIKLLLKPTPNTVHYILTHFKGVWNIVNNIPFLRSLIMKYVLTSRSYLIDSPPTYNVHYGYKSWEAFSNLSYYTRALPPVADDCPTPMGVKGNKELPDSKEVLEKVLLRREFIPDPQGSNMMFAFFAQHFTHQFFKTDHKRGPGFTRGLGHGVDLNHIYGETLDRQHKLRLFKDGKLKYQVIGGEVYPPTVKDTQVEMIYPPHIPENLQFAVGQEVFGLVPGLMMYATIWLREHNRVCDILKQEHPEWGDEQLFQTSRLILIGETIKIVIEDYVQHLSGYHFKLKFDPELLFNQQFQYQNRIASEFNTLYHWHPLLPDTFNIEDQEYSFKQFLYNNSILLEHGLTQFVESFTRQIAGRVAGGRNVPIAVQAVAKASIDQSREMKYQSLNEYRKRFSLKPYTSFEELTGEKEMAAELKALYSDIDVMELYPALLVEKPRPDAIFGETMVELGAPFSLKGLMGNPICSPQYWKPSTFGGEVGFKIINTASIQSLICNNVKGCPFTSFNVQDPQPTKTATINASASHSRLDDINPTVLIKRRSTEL
Protocol: The ability of these compounds to inhibit COX-2 in intact cells was assayed in activated RAW264.7 macrophages in which COX-2 activity was induced by pathologic stimuli. The macrophages were treated with lipopolysaccharide ([…]) and γ-interferon (10 U/mL) for 7.5 hours to induce COX-2 and then treated with several concentrations of each of inventive Compounds 5c, 5e, and 9e.
More specifically, low passage number murine RAW264.7 cells were grown in DMEM containing 10% heat-inactivated FBS. Cells (6.2×10^6 cells/T25 flask) were activated with 500 ng/mL LPS and 10 units/mL IFN-γ in serum-free DMEM for 7 hours. Vehicle (DMSO) or inhibitor (inventive Compound 5c, 5e, or 9e) in DMSO (0-1 μM) was added for 30 minutes at 37° C. […] Aliquots (200 μL) were removed into termination solution and total products were quantitatively determined by the TLC assay as described earlier.

[4] = test system: carrageenan-induced rat foot paw edema; assay: Carrageenan-induced rat foot paw edema assay; assay type: in vivo, rat (male Sprague Dawley); conditions: FIG. 2 / FIG. 3; gavage 1 hour after carrageenan, paw volume at 3 hour post-injection
Protocol: All procedures were performed according to approved animal protocols (#M/98/251, Vanderbilt University Animal Care Committee). Male Sprague Dawley rats (Harlan Sprague Dawley, Indianapolis, Ind.) (150-175 grams) were fasted for 18 hours and then injected with λ-carrageenan (0.1 ml of a 1% suspension in 0.85% saline, Fluka BioChemika, Milwaukee, Wis.) into the right hind footpad. After 1 hour, 90 μl inhibitor (either Compound 5c or Compound 9e) in DMSO was added to 6 ml corn oil, and the rats were gavaged with 0.5 ml corn oil containing DMSO or containing DMSO and inhibitor.
The ipsilateral footpad volume was measured with a water displacement plethysmometer (Ugo Basile, Italy, distributed by Stoelting Co., Wood Dale, Ill.) at 3 hour post-injection and compared to the initial pre-injection paw volume. Inhibitor concentrations were varied as shown in FIG. 2 (Compound 5c) and FIG. 3 (Compound 9e), with n=6 animals per group in duplicate experiments.

Row | Compound | IC50 [1] | Selectivity ([1]; Table 1 esters) | IC50 [2] | other results
1 | COc1ccc2c(c1)c(CCOC(=O)c1ccc(C)cc1)c(C)n2C(=O)c1ccc(Cl)cc1 [Compound 5b, N-(pchlorobenzoyl)-5-methoxy-2-methylindole-ethyl-(p-methyl)benzoate] | 50 nM | > 1320 | > 66000 nM | –
2 | CCCCC(=O)OCCc1c(C)n(C(=O)c2ccc(Cl)cc2)c2ccc(OC)cc12 [Compound 5a, N-(p-chlorobenzoyl)-5-methoxy-2-methylindole-3-ethyl-valerate] | – | > 1015 | – | IC50 ([1]; read-out: IC50 COX-2, Table 1 esters, time-dependent inhibition, [1-14C]-arachidonic acid 50 μM, 37° C., 30 seconds, duplicate): 650 nM; IC50 ([2]; read-out: IC50 COX-1, Table 1 esters, ovine COX-1 (44 nM) preincubated 25° C. 15 min, [1-14C]-arachidonic acid 50 μM, 37° C., 30 seconds, duplicate): > 66000 nM
3 | COc1ccc(C(=O)OCCc2c(C)n(C(=O)c3ccc(Cl)cc3)c3ccc(OC)cc23)cc1 [Compound 5c, N-(p-chlorobenzoyl)-5-methoxy-2-methylindole-3ethylo-(p-methoxy)benzoate] | 40 nM | > 1466 | > 66000 nM | inhibition of production of PGD2 [3]: inhibition of production of PGD2; inhibition of edema in the rat footpad [4]: inhibition of edema in the rat footpad
4 | COc1ccc2c(c1)c(CCOC(=O)c1ccc(Br)cc1)c(C)n2C(=O)c1ccc(Cl)cc1 [Compound 5f, N-(p-Chlorobenzoyl)-5-methoxy-2-methylindole-3-ethyl-(p-bromo)benzoate] | 40 nM | > 1466 | > 66000 nM | –
5 | COc1ccc2c(c1)c(CCOC(=O)c1ccccc1OC)c(C)n2C(=O)c1ccc(Cl)cc1 [Compound 5d, N-(pchlorobenzoyl)-5-methoxy-2-methylindole-3thyl-(o-methoxy)benzoate] | 50 nM | > 1320 | > 66000 nM | –
6 | N-(p-chlorobenzoyl)-5-methoxy-2-methylindole-3-ethyl-(2-phenyl)ethylamide [Compound 9i] | – | – | – | Selectivity ([1]; inventive amides table): ~ 425; IC50 ([1]; read-out: IC50 COX-2, inventive amides table): ~40 nM; IC50 ([2]; read-out: IC50 COX-1, inventive amides table): ~17000 nM
7 | COc1ccc2c(c1)c(CCOC(=O)c1ccc(Cl)cc1)c(C)n2C(=O)c1ccc(Cl)cc1 [Compound 5e, N -(p-chlorobenzoyl)-5-methoxy-2-methylindole-3-ethyl-(p-chloro)benzoate] | 50 nM | > 1320 | > 66000 nM | inhibition of production of PGD2 [3]: inhibition of production of PGD2

The next lines start with results.

Row | IC50 [1] | Selectivity ([1]; Table 1 esters) | IC50 [2] | Compound | other results
8 | – | – | > 66000 nM | COc1ccc2c(c1)c(CCNC(=O)c1ccc(Cl)cc1)c(C)n2Cc1ccc(Br)cc1 [Compound 9h, N-(p-bromobenzyl)-5-methoxy-2-methylindole-3-ethyl(p-chloro) benzamide] | –
9 | 50 nM | > 1320 | > 66000 nM | COc1ccc2c(c1)c(CCOC(=O)c1ccc(I)cc1)c(C)n2C(=O)c1ccc(Cl)cc1 [Compound 5g, N-(phlorobenzoyl)-5-methoxy-2-methylindole-3-ethyl(-p-iodo)benzoate] | –
10 | 50 nM | – | 4000 nM | COc1ccc2c(c1)c(CCNC(=O)c1ccc(Cl)cc1)c(C)n2C(=O)c1ccc(Cl)cc1 [Compound 9e, N-(p-chlorobenzoyl)-5-methoxy-2-methylindole-3-ethyl-(p-chloro)benzamide] | Selectivity ([1]; inventive amides table): 80; inhibition of production of PGD2 [3]: inhibition of production of PGD2; inhibition of edema in the rat footpad [4]: inhibition of edema in the rat footpad
11 | – | – | > 66000 nM | COc1ccc2c(c1)c(CCOC(=O)c1ccc(Cl)cc1)c(C)n2Cc1ccc(Br)cc1 [Compound 5h, N-(p-bromobenzyl)-5-methoxy-2-methylindole-3-ethyl-(p-chloro)benzoate] | –
